The source of these data is EP0845217A1, “Inhibiting undesirable taste in oral compositions” (priority 1996, dated 1998).

For one experiment, the target named is alkaline phosphatase (Bos taurus, UniProt P19111). Type of experiment: biochemical, bovine. The conditions noted are these: PNPP substrate. On the procedure: Enzyme kinetics experiments are done using purified alkaline phosphatase from bovine intestine and the substrate para-nitrophenyl phosphate (PNPP). The formation of colored para-nitrophenol (PNP) from colorless PNPP is followed by measuring the color formation in the presence of inhibitor at several concentrations.
Chain of alkaline phosphatase (P19111 20-506): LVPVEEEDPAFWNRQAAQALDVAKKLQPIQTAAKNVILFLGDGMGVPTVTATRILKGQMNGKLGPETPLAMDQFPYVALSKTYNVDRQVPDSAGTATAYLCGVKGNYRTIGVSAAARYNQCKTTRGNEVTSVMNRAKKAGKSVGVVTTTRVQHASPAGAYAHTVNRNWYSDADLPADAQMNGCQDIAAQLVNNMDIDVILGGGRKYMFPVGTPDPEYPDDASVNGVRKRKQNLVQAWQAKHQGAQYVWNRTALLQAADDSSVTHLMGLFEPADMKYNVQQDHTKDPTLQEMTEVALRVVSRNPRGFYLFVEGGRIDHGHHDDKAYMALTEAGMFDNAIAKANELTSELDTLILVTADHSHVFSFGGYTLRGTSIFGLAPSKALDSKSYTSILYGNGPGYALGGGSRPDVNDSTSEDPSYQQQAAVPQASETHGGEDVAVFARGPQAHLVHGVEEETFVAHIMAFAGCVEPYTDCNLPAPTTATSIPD
Specifically, enzyme reactions are done in a volume of 200 ul containing 12.5 mU/ml alkaline phosphatase, PNPP at concentrations between 0.5-200 mM, and an inhibitor at concentrations between 0-100 mM. […] Phosphoserine is the natural substrate for this enzyme. The final buffer solution is 0.9 M diethanolamine and 0.5 mM […], pH 9.8, mixed 3:1 (v:v) with water. Reactions are done in a 96-well microtiter plate. The enzyme reaction is initiated by the addition of the enzyme. Each reaction mixture is done in triplicate. The enzyme reaction is monitored by measuring the optical density (OD) at 405 nm, with a reference OD of 490 nm. The OD's are read every 30 seconds over a 15 minute period at room temperature. PNP concentration is determined based on a standard curve correlating OD405/490 vs. PNP concentration. […] The data is then transformed and plotted as the Kmapp / Vmax. vs. inhibitor concentration. From these plots the dissociation constant of the enzyme-inhibitor complex, Ki, is determined. The x-intercept on this plot equals (-Ki). […]

Experiment [1] relates to purified protein tyrosine phosphatase. Briefly: Purified protein tyrosine phosphatase, dephosphorylation of phosphotyrosine-containing peptide substrates. Conditions: experiments not described. Type of experiment: biochemical.
In experiment [2] the target is protein tyrosine phosphatase (Yersinia enterocolitica, UniProt P15273). Description: Protein tyrosine phosphatase enzyme kinetics with PNPP substrate. Type of experiment: biochemical. The conditions noted are these: pH 7.5. On the procedure: Enzyme kinetics are done using purified protein tyrosine phosphatase from the bacteria, Yersinia enterocolitica, recombinant form, with PNPP as the substrate. The enzyme kinetics experiments are done similarly to the kinetics experiments for alkaline phosphatase and acid phosphatase described above.
Chain of protein tyrosine phosphatase (P15273 whole entry): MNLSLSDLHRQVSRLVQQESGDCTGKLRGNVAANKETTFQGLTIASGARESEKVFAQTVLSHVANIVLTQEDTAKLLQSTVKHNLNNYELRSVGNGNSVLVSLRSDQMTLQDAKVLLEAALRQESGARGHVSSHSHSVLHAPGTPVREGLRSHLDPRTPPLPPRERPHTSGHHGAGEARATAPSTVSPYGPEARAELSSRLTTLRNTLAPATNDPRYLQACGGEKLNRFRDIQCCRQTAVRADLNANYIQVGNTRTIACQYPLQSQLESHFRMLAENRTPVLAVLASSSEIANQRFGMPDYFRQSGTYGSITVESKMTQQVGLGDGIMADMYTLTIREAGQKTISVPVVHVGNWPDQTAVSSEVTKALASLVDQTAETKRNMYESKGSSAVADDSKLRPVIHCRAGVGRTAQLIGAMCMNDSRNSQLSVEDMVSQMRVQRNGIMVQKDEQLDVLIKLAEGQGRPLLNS
Each final reaction mixture contains 20 mM Tris, 0.1 % beta-mercaptoethanol, and 0.1% bovine serum albumin at pH 7.5. The ionic strength of each reaction mixture is the same and is balanced by the addition of the appropriate amount of NaCl. Activity of this enzyme is extremely sensitive to ionic strength. Each reaction is begun with the addition of tyrosine phosphatase. The formation of PNP is monitored by measuring the OD405/490 at 30 second intervals over a 30 minute period. The enzyme velocity is linear over this time period under these conditions. The Ki values are calculated as described above for alkaline phosphatase (Table 2).

Another experiment deals with mud puppy taste cells. Briefly: Response of isolated taste cells to bitter-tasting compounds, intracellular calcium fluorescence. The class given is cell-based. The conditions noted are these: for effect on taste cell response to denatonium benzoate: inhibitor mixed with denatonium benzoate; for effect on taste cell response to dextromethorphan: inhibitor mixed with dextromethorphan; for taste cell response to bitter tasting compound: bitter compound alone. On the procedure: Taste cells are isolated from the mud puppy, a type of salamander (S. C. Kinnamon, et al, Chemical Senses 13: 355 - 366, 1988). Briefly, a fresh mud puppy tongue is incubated with collagenase, the non-gustatory epithelium is peeled off the surface, and individual taste buds are gently drawn into a micropipette using a dissecting microscope at 50X magnification. The taste buds are plated into small vessels, that are coated with Cell-Tak, containing culture media. The taste cells can remain viable up to 18 days and maintain normal functions (C. Ruiz, et al, Experimental Cell Biology of Taste and Olfaction, Current Techniques and Protocols, A. I. Spielman and J. G. Brand, eds., CRC Press, 1995, pp. 79 - 84). The taste cells are labeled intracellularly with a marker compound that fluoresces in a dose-dependent fashion to calcium ion concentration. Since an increase in the intracellular calcium ion concentration is one of the last steps in converging biochemical signal transduction pathways for bitterness, the fluorescent marker correlates with taste cell response to bitterness (D. Restrepo, et al, Experimental Cell Biology of Taste and Olfaction, Current Techniques and Protocols, A. I. Spielman and J. G. Brand, eds., CRC Press, 1995, pp. 387 - 398). Labeled taste cells are observed microscopically using image analysis software. Using a micropipette, taste cells are exposed to bitter-tasting compounds by adding the compounds in media near the taste cell. Cells that respond to the bitter-tasting compound show an increase in fluorescence intensity. Bitter inhibitors are tested by adding them to the test solution with the bitter-tasting compound. The response of individual taste cells to bitter-tasting compounds and to bitter-tasting compounds plus inhibitor are monitored by measuring the fluorescent intensity using a microscope. Images are stored electronically and image analysis software is used to analyze the data (D. Restrepo, et al, Biophysical Journal 64: 1961 - 1966, 1993).

Experiment [3] concerns Pig taste tissue tyrosine phosphatase. Description: Protein tyrosine phosphatase activity of pig taste tissue homogenate, phosphotyrosine peptide substrates, ELISA. The class given is biochemical. Conditions: for % Total Phosphatase Activity: pig taste tissue 615 ug/ml protein, 10°C for 20 min. On the procedure:
Taste tissue (circumvallate papillae) is dissected from fresh pig tongue and homogenized in buffer. Protein tyrosine phosphatase activity is measured using peptides containing phosphotyrosine as the substrate. Two substrates are used. […] The removal of phosphate from the phosphotyrosines is determined by measurement of phosphotyrosine concentration, using an ELISA, after reaction of the peptide substrate with pig taste tissue. The activity of purified tyrosine phosphatase is determined in each experiment as a control.
In this experiment, pig taste tissue and peptide substrate are combined in a buffer of 20 mM Tris, 0.1% beta-mercaptoethanol, and 1 mg/ml BSA, pH 7.0. A total volume of 100 ul in each well of a 96-well microtiter plate is used. […] The enzyme reaction is done at 10°C for 20 min. The reaction is stopped by the addition of 25 ul 400 uM sodium orthovanadate. […]
In another experiment using the same conditions as described above, the tyrosine dephosphorylation of peptide substrate 1 is measured after 1, 2, 3, 4, 5, 6, 7 and 8 minute reactions at room temperature with pig taste tissue (41 ug/ml protein) as the enzyme source.
A general note: An ELISA detects its analyte on a solid surface through an enzyme-linked reagent.

Each structure is given as a SMILES string. pKi: −log10 of the molar value. Where a name gives a salt, the structure may show the parent alone.

`C=CCc1ccc(OP(=O)(O)O)c(OC)c1` [EMP, eugenylmonophosphate]: the “type of inhibition of alkaline phosphatase” value at alkaline phosphatase was “competitively inhibited”. Also, the “effect on tyrosine phosphatase activity against peptide substrates” value (shortened to “effect on tyrosine phosphatase activity”) in experiment [1] is recorded as “inhibits the activity”. In addition, the pKi – broadly, −log10 of the Ki, conventionally taken in molar units – in experiment [2] (22°C) is 2.43; in experiment [2] (37°C), 2.48.

Consider `CC1CCC(C(C)C)C(OP(=O)(O)O)C1` (stereo not drawn) [MMP, menthylmonophosphate], for which the “type of inhibition of alkaline phosphatase” value at alkaline phosphatase is on record as “competitively inhibited”.

Turning to `O=P(O)(O)CP(=O)(O)O` [Methylene diphosphonic acid], the “share of taste cells tested with small decrease in response to denatonium benzoate” value in the experiment on mud puppy taste cells (denatonium benzoate) is 50%. Besides, the “effect on taste cell response to denatonium benzoate” value (shortened to “effect … to denatonium benzoate”) in the experiment with mud puppy taste cells is given as “small decrease in response”.

For `NCCC(O)(P(=O)(O)O)P(=O)(O)O` [Pamidronic acid, pamidronic acid], in the experiment with mud puppy taste cells, the “effect … to denatonium benzoate” value is recorded as “small reduction in response” and the “effect on taste cell response to dextromethorphan” value (“effect … to dextromethorphan” for short) is recorded as “small reduction in response”.

In the case of `N[C@@H](COP(=O)(O)O)C(=O)O` [Phosphoserine, reference compound], the “type of inhibition of alkaline phosphatase” value on alkaline phosphatase is reported as “competitively inhibited”.

Take `Cc1ccc(C(C)C)c(OP(=O)(O)O)c1` [ThMP, thymylmonophosphate]: on alkaline phosphatase, the “type of inhibition of alkaline phosphatase” value is “competitively inhibited”. The molecule further gave a pKi in experiment [2] (22°C) of 2.44.

As to `F` [calcium fluoride], the “% Total Phosphatase Activity” value was 109% in experiment [3] (Peptide Substrate 1) and 96% in experiment [3] (Peptide Substrate 2). In addition, the “time until all phosphates are removed from peptide substrate 1” value in experiment [3] (pig taste tissue 41 ug/ml protein, room temperature, calcium fluoride added, concentration not given) amounted to 2 min. For the same molecule, the “effect on tyrosine phosphatase activity” value in experiment [1] was “does not affect tyrosine phosphatase activity”.

Take `CN(C)CCC(c1ccc(Cl)cc1)c1ccccn1` (stereo not drawn) [chlorpheniramine maleate]: the “taste cell response to bitter tasting compound” value with mud puppy taste cells is “increase in intracellular calcium concentration”.

Consider `CC[N+](CC)(CC(=O)Nc1c(C)cccc1C)Cc1ccccc1` [denatonium benzoate], for which the “taste cell response to bitter tasting compound” value in the experiment with mud puppy taste cells is “increase in intracellular calcium concentration”.

In the case of `COc1ccc2c(c1)[C@]13CCCC[C@@H]1[C@H](C2)N(C)CC3` [dextromethorphan], the “taste cell response to bitter tasting compound” value with mud puppy taste cells is on record as “increase in intracellular calcium concentration”.

As for `C=C1[C@@H](O)[C@@H]2O[C@]3(CC[C@H](/C=C/[C@@H](C)[C@@H]4CC(C)=C[C@@]5(O[C@H](C[C@@](C)(O)C(=O)O)CC[C@H]5O)O4)O3)CC[C@H]2O[C@@H]1[C@@H](O)C[C@H](C)[C@H]1O[C@@]2(CCCCO2)CC[C@H]1C` [okadaic acid], in the experiment with mud puppy taste cells, the “effect … to denatonium benzoate” value is on record as “has no effect on response” and the “effect … to dextromethorphan” value is reported as “has no effect on response”.

Regarding `O=C(O)CP(=O)(O)O` [phosphonic acetic acid], in the experiment on mud puppy taste cells, the “effect … to denatonium benzoate” value is recorded as “small reduction in response” and the “effect … to dextromethorphan” value is recorded as “small reduction in response”.

For `N[C@@H](Cc1ccc(OP(=O)(O)O)cc1)C(=O)O` [phosphotyrosine], the “time until complete dephosphorylation of substrate 1” value in experiment [3] (pig taste tissue 41 ug/ml protein, room temperature, final concentration 10 nmoles/ml) is 7 min. In addition, the “effect on tyrosine phosphatase activity” value in experiment [1] is given as “inhibit the dephosphorylation”. Moreover, in the experiment with mud puppy taste cells (inhibitor mixed with chlorpheniramine maleate), the “effect on taste cell response to chlorpheniramine maleate” value is given as “decreases the response”. Moreover, in the experiment with mud puppy taste cells, the “effect … to denatonium benzoate” value is “decreases the response” and the “effect … to dextromethorphan” value is “decreases the response”.

Take `[Na+].[Na+].[Na+].[O]=[V]([O-])([O-])[O-]` [sodium orthovanadate]: the figures for the “% Total Phosphatase Activity” value in experiment [3] (Peptide Substrate 1) and in experiment [3] (Peptide Substrate 2) were 32% and 46%, respectively. The “time until complete dephosphorylation of substrate 1” value in experiment [3] (pig taste tissue 41 ug/ml protein, room temperature, final concentration 100 nmoles/ml) is 7 min. Further, in experiment [1], the “effect on tyrosine phosphatase activity” value was “inhibits the tyrosine phosphatase activity”. Further, the “effect … to denatonium benzoate” value with mud puppy taste cells is recorded as “inhibits the response”.
